Results taken from US9981989B2, “Ataxia telengiectasia and Rad3-related (ATR) protein kinase inhibitors” (Atrin Pharmaceuticals LLC, priority 2014, dated 2018).

Assays:
Jurkat cells = experiment: Phenotypical evaluation of ATR inhibition: S-phase arrest of Jurkat cells under aphidicolin replication stress, flow cytometry; format: cell-based, human; conditions: 0.2 μM aphidicolin, 24 hours
Protocol: It is known that inhibition of ATR in cells under replicative stress stalls DNA replication, which prevents cells from progressing through S-phase, leading to an accumulation of cells in this cell cycle phase (Kevin D. Smith, et al., Tim-Tipin dysfunction creates an indispensable reliance on the ATR-Chk1 pathway for continued DNA synthesis, J. Cell Biol. 2009, 187, 15-23). In the present experiment Jurkat cells were treated with 0.2 μM aphidicolin to induce replication stress in the presence of test compounds, at concentrations ranging from 10 μM to 0.1 μM, for 24 hours. Cells were fixed and cell-cycle profiles examined by flow cytometry as in Smith, J. Cell Bio. 2009. Test compounds were considered active if stalling of the cells in S-phase was observed.

Chk2 phosphorylation = experiment: ATR kinase selectivity: Chk2 phosphorylation in HCT119 WT BCL/XL-GFP cells after 5 Gy irradiation, western blot; format: cell-based, human; conditions: 5-0.01 μM compound, stimulated by 5 Gy irradiation, pChk2 (T68) (FIG. 4C)
Excerpt: (§1) Chk1 phosphorylation, ATR's primary downstream target, is used as a read-out for ATR activity (Liu Q. et al., Chk1 is an essential kinase that is regulated by Atr and required for the G(2)/M DNA damage checkpoint, Genes Dev. 2000, Jun. 15, 14(12), 1448-1459; and (Jia Li and David F. Stern, Regulation of CHK2 by DNA-dependent Protein Kinase, J Biol. Chem. 2005, 280, 12041-12050). Chk2 phosphorylation (stimulated by 5 Gy irradiation), is a marker of ATM and DNA-PKcs activity, which together with ATR are closely related DNA-damage responsive PIKK family kinases (Shuhei Matsuoka et al., Ataxia telangiectasia-mutated phosphorylates Chk2 in vivo and in vitro, Proceedings of the National Academy of Sciences of the USA, 2000, 97(19), 10389-10394; Li J and Stern D F, Regulation of CHK2 by DNA-dependent protein kinase. The Journal of biological chemistry, 2005, 280, 12041-12050).
HCT119 WT BCL/XL-GFP cells were incubated with decreasing concentrations of test compounds (5-0.01 μM) alone for 30 minutes followed by 5 Gy irradiation and cell lysis 20 minutes post irradiation. Cell lysis and western blotting were performed as in Gilad, Cancer Res, 2010, using the following antibodies as per manufacturers' instructions: pChk2 (T68) (Cell Signaling 2661S), GAPDH (loading control, Chemicon MAB374), and MCM3 (loading control, Santa Cruz sc-9850).

ATR = molecular target: T1, ATR (Homo sapiens, UniProt Q13535); experiment: ATR cellular kinase activity: Chk1 and H2AX phosphorylation in HCT119 WT BCL/XL-GFP cells with aphidicolin, western blot; format: cell-based; conditions: 5 μM aphidicolin, 4 hours
T1 construct: endogenous in cells; host or cells: HCT119 WT BCL/XL-GFP cells
Excerpt: as §1
HCT119 WT BCL/XL-GFP cells were incubated with decreasing concentrations of test compounds (10-0.003 μM) and 5 μM aphidicolin for 4 hours prior to lysis. Cell lysis and western blotting were performed as in Gilad, Cancer Res, 2010, using the following antibodies as per manufacturers' instructions: pCHK1 (Ser345) (Cell signaling 133D3), pH2AX (S139) (Millipore 05636), GAPDH (loading control, Chemicon MAB374), and MCM3 (loading control, Santa Cruz sc-9850). Test compounds were considered active if significant inhibition of Chk1 phosphorylation was observed.

[1] = 1.25 μM compound, Jurkat cells (FIGS. 3A, 3B)

T1 sequence (Q13535 whole entry): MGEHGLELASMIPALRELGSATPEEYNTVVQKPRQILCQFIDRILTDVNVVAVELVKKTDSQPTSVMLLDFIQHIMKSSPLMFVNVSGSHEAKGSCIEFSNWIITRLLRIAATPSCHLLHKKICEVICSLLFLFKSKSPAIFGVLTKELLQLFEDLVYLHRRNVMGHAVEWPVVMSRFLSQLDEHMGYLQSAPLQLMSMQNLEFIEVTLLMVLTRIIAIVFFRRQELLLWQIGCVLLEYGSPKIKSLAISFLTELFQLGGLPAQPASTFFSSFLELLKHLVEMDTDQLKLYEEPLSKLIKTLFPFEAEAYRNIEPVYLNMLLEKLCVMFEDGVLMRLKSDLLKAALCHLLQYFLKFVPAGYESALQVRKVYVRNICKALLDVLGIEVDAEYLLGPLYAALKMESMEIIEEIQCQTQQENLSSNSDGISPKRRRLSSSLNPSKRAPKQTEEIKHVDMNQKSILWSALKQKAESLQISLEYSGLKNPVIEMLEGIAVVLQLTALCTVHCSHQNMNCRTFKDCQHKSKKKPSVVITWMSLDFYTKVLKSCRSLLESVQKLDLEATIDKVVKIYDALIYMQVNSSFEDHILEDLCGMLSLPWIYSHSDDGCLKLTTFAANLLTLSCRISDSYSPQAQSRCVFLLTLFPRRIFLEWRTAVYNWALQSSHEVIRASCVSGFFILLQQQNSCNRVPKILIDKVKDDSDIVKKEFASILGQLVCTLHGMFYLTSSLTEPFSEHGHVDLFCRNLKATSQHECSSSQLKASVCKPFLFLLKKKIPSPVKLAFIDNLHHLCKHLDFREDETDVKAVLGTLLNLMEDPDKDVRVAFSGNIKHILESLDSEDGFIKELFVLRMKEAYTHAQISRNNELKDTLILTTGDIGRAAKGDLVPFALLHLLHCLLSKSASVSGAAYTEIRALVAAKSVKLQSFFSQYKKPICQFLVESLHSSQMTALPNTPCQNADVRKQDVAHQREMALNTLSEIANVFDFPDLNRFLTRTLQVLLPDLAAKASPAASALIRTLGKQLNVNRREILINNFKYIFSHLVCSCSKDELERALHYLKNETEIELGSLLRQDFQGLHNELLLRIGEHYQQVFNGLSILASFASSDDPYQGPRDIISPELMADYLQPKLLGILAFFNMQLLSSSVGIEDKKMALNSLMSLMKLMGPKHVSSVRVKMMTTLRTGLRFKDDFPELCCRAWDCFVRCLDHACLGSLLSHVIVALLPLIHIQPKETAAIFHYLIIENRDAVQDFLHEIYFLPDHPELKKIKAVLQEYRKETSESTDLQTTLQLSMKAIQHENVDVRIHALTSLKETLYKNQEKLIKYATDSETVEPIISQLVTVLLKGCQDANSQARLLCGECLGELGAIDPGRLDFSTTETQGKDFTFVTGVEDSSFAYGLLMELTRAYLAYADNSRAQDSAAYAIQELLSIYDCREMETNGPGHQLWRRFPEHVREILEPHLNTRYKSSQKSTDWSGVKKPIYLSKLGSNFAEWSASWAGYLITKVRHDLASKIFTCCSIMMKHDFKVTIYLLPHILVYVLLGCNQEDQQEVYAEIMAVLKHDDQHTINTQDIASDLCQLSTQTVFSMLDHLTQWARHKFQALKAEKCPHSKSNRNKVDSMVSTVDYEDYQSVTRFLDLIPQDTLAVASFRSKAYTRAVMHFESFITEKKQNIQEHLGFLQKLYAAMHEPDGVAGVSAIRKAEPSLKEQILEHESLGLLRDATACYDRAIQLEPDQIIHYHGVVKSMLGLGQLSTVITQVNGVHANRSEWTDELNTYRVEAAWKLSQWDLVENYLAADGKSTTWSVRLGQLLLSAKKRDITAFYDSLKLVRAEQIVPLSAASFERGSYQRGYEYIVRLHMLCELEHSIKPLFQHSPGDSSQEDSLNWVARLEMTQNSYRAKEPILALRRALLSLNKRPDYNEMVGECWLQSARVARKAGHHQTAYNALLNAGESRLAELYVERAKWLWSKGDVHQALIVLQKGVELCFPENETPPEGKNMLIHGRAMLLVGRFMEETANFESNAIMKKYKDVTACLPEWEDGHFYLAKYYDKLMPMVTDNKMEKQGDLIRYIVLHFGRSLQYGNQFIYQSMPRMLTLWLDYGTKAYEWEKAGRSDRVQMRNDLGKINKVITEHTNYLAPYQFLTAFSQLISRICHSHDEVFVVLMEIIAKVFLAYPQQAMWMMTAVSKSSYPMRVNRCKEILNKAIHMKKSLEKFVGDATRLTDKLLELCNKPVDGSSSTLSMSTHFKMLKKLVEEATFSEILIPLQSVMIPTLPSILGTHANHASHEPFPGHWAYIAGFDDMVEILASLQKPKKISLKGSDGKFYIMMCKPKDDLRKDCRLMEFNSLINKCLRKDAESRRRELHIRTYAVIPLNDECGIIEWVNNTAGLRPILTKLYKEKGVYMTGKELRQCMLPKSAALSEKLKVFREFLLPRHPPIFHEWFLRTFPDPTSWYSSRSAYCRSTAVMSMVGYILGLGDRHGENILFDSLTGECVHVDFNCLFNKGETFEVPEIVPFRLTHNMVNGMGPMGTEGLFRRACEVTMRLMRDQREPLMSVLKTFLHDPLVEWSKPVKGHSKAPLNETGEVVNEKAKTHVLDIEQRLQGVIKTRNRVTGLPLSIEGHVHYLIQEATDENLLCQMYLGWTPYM
T1 sequence (Q8WXE1 whole entry partner): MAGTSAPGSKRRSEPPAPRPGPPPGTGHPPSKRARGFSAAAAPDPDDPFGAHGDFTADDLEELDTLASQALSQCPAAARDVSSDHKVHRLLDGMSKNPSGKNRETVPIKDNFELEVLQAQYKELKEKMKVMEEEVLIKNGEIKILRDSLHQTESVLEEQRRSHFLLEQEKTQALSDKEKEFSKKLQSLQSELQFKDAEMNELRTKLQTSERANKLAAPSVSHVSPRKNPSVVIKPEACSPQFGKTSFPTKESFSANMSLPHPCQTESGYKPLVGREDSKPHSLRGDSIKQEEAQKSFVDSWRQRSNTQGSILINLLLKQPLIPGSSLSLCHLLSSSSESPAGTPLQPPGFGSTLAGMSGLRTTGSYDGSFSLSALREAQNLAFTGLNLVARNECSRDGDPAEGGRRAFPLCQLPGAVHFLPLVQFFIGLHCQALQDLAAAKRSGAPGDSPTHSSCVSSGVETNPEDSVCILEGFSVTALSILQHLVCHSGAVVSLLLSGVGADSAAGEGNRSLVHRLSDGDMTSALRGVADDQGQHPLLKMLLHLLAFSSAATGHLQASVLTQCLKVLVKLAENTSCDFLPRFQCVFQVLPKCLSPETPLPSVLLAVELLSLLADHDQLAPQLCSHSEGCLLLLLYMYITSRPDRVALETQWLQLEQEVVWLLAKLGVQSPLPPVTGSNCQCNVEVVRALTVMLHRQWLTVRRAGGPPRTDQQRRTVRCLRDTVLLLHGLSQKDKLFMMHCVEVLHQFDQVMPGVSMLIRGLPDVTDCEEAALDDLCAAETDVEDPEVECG

| Structure (SMILES) | inhibition of cell cycle progression by accumulation of cells in S-phase (Jurkat cells; [1]) | inhibition of cell cycle progression by accumulation of cells in S-phase (Jurkat cells; 2.5 μM compound, Jurkat cells (FIG. 2)) | inhibition of cell cycle progression by accumulation of cells in S-phase (Jurkat cells; 10 μM compound, Jurkat cells (FIG. 1)) | levels of Chk2 phosphorylation (Chk2 phosphorylation) | concentration at which Chk1 phosphorylation is completely inhibited (ATR; pCHK1 (Ser345) (FIG. 4B)) [μLM] | lowest dose able to limit phosphorylation of Chk1 (ATR; pCHK1 (Ser345) (FIG. 4B)) [nM] | H2AX phosphorylation (DNA double strand breaks) (ATR; pH2AX (S139) (FIG. 4B)) |
| --- | --- | --- | --- | --- | --- | --- | --- |
| CNS(=O)(=O)c1ccc(-c2cnc(N)c(C(=O)Nc3ccccc3OCCOCCOCCO)n2)cc1 [IM11, 3-amino-N-(2-(2-(2-(2-hydroxyethoxy)ethoxy)ethoxy)phenyl)-6-(4-(N-methylsulfamoyl)phenyl)pyrazine-2-carboxamide] | inactive | – | – | – | – | – | – |
| CN1CCOCCOCCOc2ccccc2NC(=O)c2nc(cnc2N)-c2ccc(cc2)S1(=O)=O [P(1)] | significant inhibition of cell cycle progression | significant inhibition of cell cycle progression | significant inhibition of cell cycle progression | – | – | – | – |
| CNCc1cccc2c1OCCOCCOCCN(C)S(=O)(=O)c1ccc(cc1)-c1cnc(N)c(n1)C(=O)N2 [P(4)] | – | – | – | did not affect | ≥ 1 | 30 | increased H2AX phosphorylation |
